The source of these data is PubChem BioAssay AID1919010 (Molecular Pharmacology Branch, DTP, NCI, 2023).

This experiment relates to Hs578T complex spheroid growth, percent test/control. As to the kind of experiment: Anticancer human tumor Hs578T cell line growth inhibition [AhR].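 For all read-outs here: luminescent viability signal as a proxy for spheroid growth; spheroids exposed to agents for one week after three days of growth.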 The conditions noted are these: for viability, T/C: stronger effect = lower value. Summed up:
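Complex tumor spheroids co-cultured with HUVEC and human MSC stroma; AhR antagonists tested in combination with standard-of-care and investigational agents. Top concentration at or near clinical Cmax (else 10 microM), half-log dilutions; growth expressed as percent test/control.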

Setting [1] is: curve of first compound, second compound 0.1 µM.
Where [2] appears, read: curve of first compound, second compound 0.316 µM.
The mark [3] stands for this setting: curve of first compound, second compound 1 µM.
[4] abbreviates: curve of first compound, second compound 3.16 µM.
Setting [5] is: curve of first compound, second compound 10 µM.
Where [6] appears, read: second compound 0.1 µM, first compound 0.0316 µM.
Where [7] appears, read: second compound 0.1 µM, first compound 0.1 µM.
Setting [8] is: second compound 0.316 µM, first compound 0.0316 µM.
[9] abbreviates: second compound 0.316 µM, first compound 0.1 µM.
Where [10] appears, read: second compound 1 µM, first compound 0.0316 µM.
Where [11] appears, read: second compound 1 µM, first compound 0.1 µM.
Setting [12] is: second compound 3.16 µM, first compound 0.0316 µM.
[13] abbreviates: second compound 3.16 µM, first compound 0.1 µM.
[14] abbreviates: second compound 10 µM, first compound 0.0316 µM.
Where [15] appears, read: second compound 10 µM, first compound 0.1 µM.

The structures appear in SMILES notation. pIC50: −log10 of the molar value. “And” between values parts separate entries of the source, which are not always exact repeats. Equal entries are not always repeated.

Turning to `CC(C)CC(NC(=O)C(Cc1ccccc1)NC(=O)c1cnccn1)B(O)O` (centres undefined) + Cc1cncc(-c2nc(NCCc3c[nH]c4ccccc34)c3ncn(C(C)C)c3n2)c1, the pIC50 (in general, the IC50 on a negative log10 scale, so that one unit is a factor of ten) was 8.15 under setting [1]; 8.18 under setting [2]; 8.23 under setting [3]; 8.42 under setting [4]; more than 9.02 under setting [5]. In addition, the viability, T/C (as a rule, the result in the treated group divided by that in the control group, in per cent) reads like this: (second compound 0.1 µM, first compound 0.000949 µM) 101%; (second compound 0.1 µM, first compound 0.003 µM) 101%; (second compound 0.1 µM, first compound 0.00949 µM) 31.8%; (second compound 0.1 µM, first compound 0.03 µM) 0.32%; (second compound 0.1 µM, first compound 0.0949 µM) 0.25%; (second compound 0.1 µM, first compound 0.3 µM) 0.36%. The viability, T/C runs as follows: (second compound 0.316 µM, first compound 0.000949 µM) 112%; (second compound 0.316 µM, first compound 0.003 µM) 101%; (second compound 0.316 µM, first compound 0.00949 µM) 27.3%; (second compound 0.316 µM, first compound 0.03 µM) 0.39%; (second compound 0.316 µM, first compound 0.0949 µM) 0.31%; (second compound 0.316 µM, first compound 0.3 µM) 0.31%. Further, the viability, T/C runs as follows: (second compound 1 µM, first compound 0.000949 µM) 97.8%; (second compound 1 µM, first compound 0.003 µM) 86.5%; (second compound 1 µM, first compound 0.00949 µM) 24.8%; (second compound 1 µM, first compound 0.03 µM) 0.28%; (second compound 1 µM, first compound 0.0949 µM) 0.19%; (second compound 1 µM, first compound 0.3 µM) 0.29%. Further, the viability, T/C is, setting by setting: (second compound 3.16 µM, first compound 0.000949 µM) 69.4%; (second compound 3.16 µM, first compound 0.003 µM) 58%; (second compound 3.16 µM, first compound 0.00949 µM) 17.3%; (second compound 3.16 µM, first compound 0.03 µM) 0.24%; (second compound 3.16 µM, first compound 0.0949 µM) 0.24%; (second compound 3.16 µM, first compound 0.3 µM) 0.28%. The viability, T/C was 5.56% (second compound 10 µM, first compound 0.000949 µM); 6.44% (second compound 10 µM, first compound 0.003 µM); 1.16% (second compound 10 µM, first compound 0.00949 µM); 0.57% (second compound 10 µM, first compound 0.03 µM); 0.26% (second compound 10 µM, first compound 0.0949 µM); 0.36% (second compound 10 µM, first compound 0.3 µM).
`O=C(c1cc(Cc2n[nH]c(=O)c3ccccc23)ccc1F)N1CCN(C(=O)C2CC2)CC1`: the viability, T/C was 104% and 103% and 102% (compound 0.0316 µM); 108% and 102% and 106% (compound 0.1 µM); 109% and 98.8% and 95% (compound 0.316 µM); 104% and 103% and 88.4% (compound 1 µM); 90.8% and 91.2% and 88.4% (compound 3.16 µM); 82.5% and 75.1% and 82.1% (compound 10 µM). Further, the pIC50 (curve of compound) is less than 5.00.
Turning to `COc1ccc([C@@H](O)c2cc(-c3ncnc4cc(N5CCOCC5)ccc34)c(F)cc2Cl)nn1`, the viability, T/C is, setting by setting: (compound 0.0316 µM) 98.8% and 109% and 95.3%; (compound 0.1 µM) 106% and 104% and 89.5%; (compound 0.316 µM) 90.8% and 87.6% and 99.6%; (compound 1 µM) 90.1% and 71.2% and 78.9%; (compound 3.16 µM) 57.8% and 44.8% and 53.4%; (compound 10 µM) 35.3% and 31.1% and 33.9%. In addition, the pIC50 (curve of compound) is 5.32 and 5.58 and 5.44.
As for `Cn1ncnc1C1c2n[nH]c(=O)c3cc(F)cc(c23)NC1c1ccc(F)cc1` (centres undefined) + Cc1cncc(-c2nc(NCCc3c[nH]c4ccccc34)c3ncn(C(C)C)c3n2)c1, the pIC50 is less than 7.00 under setting [1]; less than 7.00 under setting [2]; less than 7.00 under setting [3]; less than 7.00 under setting [4]; more than 9.50 under setting [5]. The viability, T/C was 103% (second compound 0.1 µM, first compound 0.000316 µM); 104% (second compound 0.1 µM, first compound 0.001 µM); 112% (second compound 0.1 µM, first compound 0.00316 µM); 99% (second compound 0.1 µM, first compound 0.01 µM); 111% under setting [6]; 108% under setting [7]. Moreover, the viability, T/C runs as follows: (second compound 0.316 µM, first compound 0.000316 µM) 107%; (second compound 0.316 µM, first compound 0.001 µM) 115%; (second compound 0.316 µM, first compound 0.00316 µM) 116%; (second compound 0.316 µM, first compound 0.01 µM) 106%; under setting [8], 97.4%; under setting [9], 108%. Moreover, the viability, T/C was 101% (second compound 1 µM, first compound 0.000316 µM); 105% (second compound 1 µM, first compound 0.001 µM); 98% (second compound 1 µM, first compound 0.00316 µM); 98.5% (second compound 1 µM, first compound 0.01 µM); 97% under setting [10]; 97.6% under setting [11]. For the same compound, the viability, T/C by setting is: (second compound 3.16 µM, first compound 0.000316 µM) 67.8%; (second compound 3.16 µM, first compound 0.001 µM) 73.3%; (second compound 3.16 µM, first compound 0.00316 µM) 72.4%; (second compound 3.16 µM, first compound 0.01 µM) 69%; under setting [12], 70.5%; under setting [13], 64.1%. In addition, the viability, T/C by setting is: (second compound 10 µM, first compound 0.000316 µM) 8.48%; (second compound 10 µM, first compound 0.001 µM) 9.41%; (second compound 10 µM, first compound 0.00316 µM) 9.77%; (second compound 10 µM, first compound 0.01 µM) 7.44%; under setting [14], 9.58%; under setting [15], 9.69%.
In the case of `CC1(C)CCC(CN2CCN(c3ccc(C(=O)NS(=O)(=O)c4ccc(NCC5CCOCC5)c([N+](=O)[O-])c4)c(Oc4cnc5[nH]ccc5c4)c3)CC2)=C(c2ccc(Cl)cc2)C1` + CC(CO)NC(=O)c1cc(-c2ccc(Cl)cc2)nn(-c2cnn(C)c2)c1=O, the pIC50 under setting [1] was less than 5.00; the pIC50 under setting [2] was less than 5.00; the pIC50 under setting [3] was less than 5.00; the negative logarithm of the IC50 (pIC50) under setting [4] was less than 5.00; the pIC50 under setting [5] was less than 5.00. The viability, T/C runs as follows: under setting [6], 109%; under setting [7], 107%; (second compound 0.1 µM, first compound 0.316 µM) 107%; (second compound 0.1 µM, first compound 1 µM) 101%; (second compound 0.1 µM, first compound 3.16 µM) 106%; (second compound 0.1 µM, first compound 10 µM) 84.3%. Also, the viability, T/C reads like this: under setting [8], 110%; under setting [9], 99.7%; (second compound 0.316 µM, first compound 0.316 µM) 110%; (second compound 0.316 µM, first compound 1 µM) 91.2%; (second compound 0.316 µM, first compound 3.16 µM) 93%; (second compound 0.316 µM, first compound 10 µM) 96.3%. Moreover, the viability, T/C under setting [10] is 115%; the viability, T/C under setting [11] is 122%; the viability, T/C (second compound 1 µM, first compound 0.316 µM) is 114%; the viability, T/C (second compound 1 µM, first compound 1 µM) was 98.3%; the viability, T/C (second compound 1 µM, first compound 3.16 µM) is 109%; the viability, T/C (second compound 1 µM, first compound 10 µM) was 80%. Further, the viability, T/C reads like this: under setting [12], 108%; under setting [13], 111%; (second compound 3.16 µM, first compound 0.316 µM) 110%; (second compound 3.16 µM, first compound 1 µM) 99.7%; (second compound 3.16 µM, first compound 3.16 µM) 102%; (second compound 3.16 µM, first compound 10 µM) 88.7%. The viability, T/C under setting [14] is 117%; the viability, T/C under setting [15] was 96.9%; the viability, T/C (second compound 10 µM, first compound 0.316 µM) is 79.4%; the viability, T/C (second compound 10 µM, first compound 1 µM) was 86%; the viability, T/C (second compound 10 µM, first compound 3.16 µM) was 87.1%; the viability, T/C (second compound 10 µM, first compound 10 µM) was 91.8%.
